# Experimental data taken from US4569910A, “Methods and reagents for pyranosone production” (Cetus Corporation, priority 1984, dated 1986).
# Tests used:
# P. obtusus P2O = experiment: Relative activities of purified P. obtusus P2O on pyranose substrates; type: biochemical; conditions: about 1% (w/v) substrate concentration; D-glucose = 100
# Experimental: The P2O enzyme preparation from Example II was purified further using DEAE chromatography in 30 mM TRIS-HCl, pH 8.5, containing 2 mM EDTA and 10 ug/ml PMSF. The sample was eluted from a 5×16 cm column using a gradient of 0-300 mM NaCl. P2O activity was monitored using the orthodianisidine colorometric assay for the peroxide co-product, essentially as described by Ruelius et al., Biochim et Biophys. Acta 167, 493-500 (1968). P2O activity eluted at about 50 mM NaCl. Fractions containing the peak activity were pooled and concentrated to 0.5 ml by ultrafiltration using Amicon filters obtained from Amicon Corp. (Danvers, MA). Biogel P300 was obtained from Biorad Laboratories (Richmond, CA). The sample was further purified by molecular sieve chromatography using a 1.5×95 cm Biogel P300 column in 100 mM sodium phosphate, pH 7 buffer. The P2O activity eluted at a sharp peak corresponding to an apparent native molecular weight of about 290,000 daltons.
# The enzyme appears to contain one covalently bound flavin molecule per subunit (detectable as UV-fluorescence in the 68,000 dalton SDS-PAGE band), and has absorption maxima at 276, 357 and 456 nm. The enzyme has a sedimentation coefficient of about 11.4, as determined by sucrose gradient ultracentrifugation. The relative activities of the enzyme, on D-glucose, L-sorbose, D-xylose, and D-gluconolactone are 100: 80: 48: 12, respectively, at about 1% (w/v) substrate concentration. As noted above with respect to FIG. 2, the enzyme has a broad pH optimum of between about 4.5 and 5.5.
# L. betulinus P2O = experiment: Relative activities of purified L. betulinus P2O on pyranose substrates; type: biochemical; conditions: 20 mM substrate concentration; D-glucose = 100
# Experimental: The resulting clear yellow supernatant was further purified using DEAE chromatography in 30 mM TRIS-HCl, pH 8.5, and eluted from the 5×16 cm column using a 0-300 mM NaCl gradient. The protein eluted at about 75 mM NaCl. Fractions containing the peak of P2O activity were pooled and concentrated to 0.5 ml by Amicon PM30 ultrafiltration, and then fractionated, according to native molecular weight, using a 1.5×95 cm Biogel P300 column. The column was run at a flow rate of 0.1 ml per minute, using 100 mM sodium phosphate, pH 7.0. The protein eluted in a fraction corresponding to an apparent native molecular weight of about 300,000 daltons. […] Based on the molecular weight data, the protein appears to be a homotetramer.
# The enzyme contains a covalently attached flavin on each subunit, and has absorption maxima at 275, 360, and 450 nm. The relative activities of the purified enzyme on the pyranose substrates D-glucose, L-sorbose, D-xylose and delta-D-gluconolactone are 100: 43: 43: 26, respectively, at 20 mM substrate concentration. The enzyme has a broad pH optimum between about 5 and 6.
# C. versicolor P2O = biological target: T1, C. versicolor P2O (Trametes versicolor, UniProt P79076); experiment: Relative activities of purified C. versicolor P2O on pyranose substrates; type: biochemical; conditions: 1% (w/v) substrate concentration; D-glucose = 100
# T1 construct: endogenous in cells; host or cells: Coriolus versicolor, own culture (NRRL 15152 / CMCC 0748, selected high producer; native enzyme, purified)
# Experimental: The enzyme was applied to a 2.6×40 cm DEAE column, washed, and eluted using a 0-300 mM NaCl gradient. The P2O elutes at about 220 mM. Portions of each fraction were assayed for P2O activity, by monitoring peroxide generation conventionally. Protein concentration was also determined by a conventional method. The fractions containing P2O activity were pooled and concentrated by ultrafiltration with an Amicon PM10 filter obtained from Amicon Corp. Peak fractions were dialyzed into 30 mM sodium acetate (pH 5.5), adjusted to 1.5M NaCl and loaded onto a phenylsepharose column. The P2O was eluted with a 0-1.5M NaCl gradient in 50 mM sodium acetate, pH 5.5. The enzyme eluted at about 1.1M NaCl. Fractions containing the peak activity were pooled and concentrated to 0.5 ml by Amicon PM30 ultrafiltration and sized according to native molecular weight using a 1.5×95 cm Biogel P300 column. Elution was at 0.1 ml/minute with 100 mM sodium phosphate, pH 7.0. Using known molecular weight markers in the column, the enzyme's apparent native molecular weight was calculated to be about 130,000 daltons. A single band having a molecular weight of about 65,000 was observed when the enzyme was analyzed by SDS-PAGE. The enzyme thus appears to be a homodimer. The enzyme was judged to be about 95% pure, based on the staining intensity of protein bands in SDS-PAGE.
# The relative activities of the enzyme on the substrates D-glucose, L-sorbose, D-xylose and delta-D-gluconolactone are 100: 74: 41: 6, respectively, at 1% (w/v) substrate concentration. The enzyme has a pH optimum of about 5.0.
# [1] = Nonenzymatic breakdown of purified glucosone (UV scans 200-350 nm; H2O2 effect); type: physicochemical; conditions: for Change of 310 nm peak (nonenzymatic breakdown): 0.5% glucosone solution, scans at one minute intervals
# Experimental: The conversion of a pyranose to the corresponding pyranosone by P2O in the presence of oxygen is accompanied by the stoichiometric production of H2 O2. The H2 O2 produced in the reaction may promote oxidative degradation of the product. Studies performed in support of the present application indicate that nonenzymatic breakdown of glucosone to acidic products may be accelerated at H2 O2 concentrations above about 0.2 mM. More importantly, elevated H2 O2 concentrations produce relatively rapid inactivation of the P2O enzyme. The susceptibility of P2O to inactivation by elevated concentrations of H2 O2 in a continuous-flow reactor is described below in Example XIII. Briefly, four continuous-flow reactors containing different P2O/catalase activity ratios were run in the presence of pure glucose. The half-life of the P2O enzyme in each reactor was determined from the observed change in the amount of glucosone eluting from the reactor over a several-day reaction period. The measured half-lives of P2O expressed in arbitrary half-life units, are given in Example XIII, Table 1. As will be seen from the table, the presence of catalase, at a P2O/catalase activity ratio of less than about 10^-3 and preferably less than about 2×10^-4 (i.e., at an H2 O2 concentration of less than about 0.2mM) extends the measured P2O half-life 30-60 fold with respect to that of P2O reacted with glucose in the absence of catalase.
# Secondly, studies indicate that pure glucosone undergoes relatively rapid, nonenzymatic breakdown above a pH of about 7.0. […] Immediately thereafter, the solution was scanned spectrophotometrically in the UV range between 200 and 350 nm, at one minute intervals.
Compound,Relative activity of the enzyme on substrate (P. obtusus P2O),Relative activity of the enzyme on substrate (L. betulinus P2O),Relative activity of the enzyme on substrate (C. versicolor P2O),H2O2 concentration above which nonenzymatic breakdown to acidic products may be accelerated [1],Change of 310 nm peak (nonenzymatic breakdown) ([1]; pH 6.0),"Change of 310 nm peak (nonenzymatic breakdown) ([1]; pH 7.0, buffered)"
O=C[C@H](O)[C@@H](O)[C@H](O)[C@H](O)CO [D-glucose],100,100,100,,,
O=C[C@H](O)[C@@H](O)[C@H](O)CO [D-xylose],48,43,41,,,
O=C(CO)[C@@H](O)[C@H](O)[C@@H](O)CO [L-sorbose],80,43,74,,,
"O=C1O[C@H](CO)[C@@H](O)[C@H](O)[C@H]1O [delta-D-gluconolactone, D-gluconic acid delta-lactone]",12,26,6,,,
"O=CC(=O)[C@@H](O)[C@H](O)[C@H](O)CO [glucosone, D-arabino-2-hexosulose]",,,,above 0.2 mM,no initial peak at 310 nm was observed nor did one form,increasing several-fold over a five minute period
